Laboratory results published in the kinase profiling compilation of Christmann-Franck et al. (2016).

Tests used:
Assay in all cases: radiometric filter-binding kinase assay
MAPK11 (human) = MAPK11 (human) (UniProt Q15759)
STK3 (human) = STK3 (human) (UniProt Q13188)
EPHB2 (human) = EPHB2 (human) (UniProt P29323)
AURKA (human) = AURKA (human) (UniProt O14965)
BTK (human) = BTK (human) (UniProt Q06187)
MAP3K11 (human) = MAP3K11 (human) (UniProt Q16584)
MARK3 (human) = MARK3 (human) (UniProt P27448)
YES1 (human) = YES1 (human) (UniProt P07947)
EPHB4 (human) = EPHB4 (human) (UniProt P54760)
MAPK8 (human) = MAPK8 (human) (UniProt P45983)
JAK2 JH1 JH2 (human) = JAK2 JH1 JH2 (human) (UniProt O60674)
SYK (human) = SYK (human) (UniProt P43405)
PRKCA (human) = PRKCA (human) (UniProt P17252)
INSR (human) = INSR (human) (UniProt P06213)
BRSK2 (human) = BRSK2 (human) (UniProt Q8IWQ3)
MAPK9 (human) = MAPK9 (human) (UniProt P45984)
[1] = test system: RPS6KB1 (human), P23443 [T412E]
MAP3K1 (human) = MAP3K1 (human) (UniProt Q13233)
MAP2K1 (human) = MAP2K1 (human) (UniProt Q02750)
MAPK10 (human) = MAPK10 (human) (UniProt P53779)
TBK1 (human) = TBK1 (human) (UniProt Q9UHD2)
BRSK1 (human) = BRSK1 (human) (UniProt Q8TDC3)
PIM1 (human) = PIM1 (human) (UniProt P11309)
CaMK1 (human) = CaMK1 (human) (UniProt Q14012)
[2] = test system: AKT1 (human), P31749 [S473D]
DYRK2 (human) = DYRK2 (human) (UniProt Q92630)
FLT1 (human) = FLT1 (human) (UniProt P17948)
GCK (human) = GCK (human) (UniProt Q12851)
EPHA2 (human) = EPHA2 (human) (UniProt P29317)
MAPKAPK5 (human) = MAPKAPK5 (human) (UniProt Q8IW41)
HIPK2 (human) = HIPK2 (human) (UniProt Q9H2X6)
HIPK1 (human) = HIPK1 (human) (UniProt Q86Z02)
DYRK3 (human) = DYRK3 (human) (UniProt O43781)

MAPKAPK5 (human), sequence (Q8IW41 whole entry, looked up): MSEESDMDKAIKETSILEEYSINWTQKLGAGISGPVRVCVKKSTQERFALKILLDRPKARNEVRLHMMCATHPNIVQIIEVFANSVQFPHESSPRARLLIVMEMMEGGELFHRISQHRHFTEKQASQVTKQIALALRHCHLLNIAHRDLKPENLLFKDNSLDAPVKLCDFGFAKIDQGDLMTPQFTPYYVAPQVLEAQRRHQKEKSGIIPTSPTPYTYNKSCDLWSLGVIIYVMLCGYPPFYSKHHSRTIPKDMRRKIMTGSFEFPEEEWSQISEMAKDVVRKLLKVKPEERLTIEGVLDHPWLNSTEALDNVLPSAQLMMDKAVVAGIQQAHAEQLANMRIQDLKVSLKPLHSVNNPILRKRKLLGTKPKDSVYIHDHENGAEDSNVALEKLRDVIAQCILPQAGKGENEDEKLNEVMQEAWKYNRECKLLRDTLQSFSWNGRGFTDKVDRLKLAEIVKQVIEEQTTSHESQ
FLT1 (human), sequence (P17948 whole entry, looked up): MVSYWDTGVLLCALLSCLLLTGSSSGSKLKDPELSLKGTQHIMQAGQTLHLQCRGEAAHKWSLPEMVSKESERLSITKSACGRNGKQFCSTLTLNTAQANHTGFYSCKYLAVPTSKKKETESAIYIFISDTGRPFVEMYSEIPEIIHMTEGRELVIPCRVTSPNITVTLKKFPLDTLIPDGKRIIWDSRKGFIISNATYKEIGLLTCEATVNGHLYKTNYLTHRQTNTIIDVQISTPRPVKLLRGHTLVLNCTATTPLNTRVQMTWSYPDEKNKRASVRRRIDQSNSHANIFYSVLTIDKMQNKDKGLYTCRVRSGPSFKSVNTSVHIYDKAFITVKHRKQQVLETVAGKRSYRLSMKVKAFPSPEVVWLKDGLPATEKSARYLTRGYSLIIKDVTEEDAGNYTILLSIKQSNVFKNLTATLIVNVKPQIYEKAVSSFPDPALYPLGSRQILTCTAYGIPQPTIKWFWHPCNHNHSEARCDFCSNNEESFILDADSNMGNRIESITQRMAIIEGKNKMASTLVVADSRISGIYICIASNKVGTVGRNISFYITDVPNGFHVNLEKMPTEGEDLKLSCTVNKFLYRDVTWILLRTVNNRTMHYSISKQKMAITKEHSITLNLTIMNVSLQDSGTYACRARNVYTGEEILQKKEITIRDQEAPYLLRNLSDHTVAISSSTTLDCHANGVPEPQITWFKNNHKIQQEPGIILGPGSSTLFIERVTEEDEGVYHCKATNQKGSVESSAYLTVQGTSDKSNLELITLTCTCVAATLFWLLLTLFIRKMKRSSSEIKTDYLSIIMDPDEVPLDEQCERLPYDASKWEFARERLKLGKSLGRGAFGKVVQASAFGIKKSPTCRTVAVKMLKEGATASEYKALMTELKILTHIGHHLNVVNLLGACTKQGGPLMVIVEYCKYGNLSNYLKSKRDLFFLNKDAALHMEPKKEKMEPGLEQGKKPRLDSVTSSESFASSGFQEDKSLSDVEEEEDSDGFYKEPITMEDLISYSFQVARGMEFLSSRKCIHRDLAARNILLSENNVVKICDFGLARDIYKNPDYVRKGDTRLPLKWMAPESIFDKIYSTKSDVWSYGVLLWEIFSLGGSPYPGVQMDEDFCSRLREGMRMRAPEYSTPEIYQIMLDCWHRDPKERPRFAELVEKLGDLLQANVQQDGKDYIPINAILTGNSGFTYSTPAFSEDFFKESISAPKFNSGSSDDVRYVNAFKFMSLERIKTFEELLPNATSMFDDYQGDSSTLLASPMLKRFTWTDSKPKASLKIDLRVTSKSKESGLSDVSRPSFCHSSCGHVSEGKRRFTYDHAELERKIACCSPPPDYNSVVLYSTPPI
MAPK8 (human), sequence (P45983 whole entry, looked up): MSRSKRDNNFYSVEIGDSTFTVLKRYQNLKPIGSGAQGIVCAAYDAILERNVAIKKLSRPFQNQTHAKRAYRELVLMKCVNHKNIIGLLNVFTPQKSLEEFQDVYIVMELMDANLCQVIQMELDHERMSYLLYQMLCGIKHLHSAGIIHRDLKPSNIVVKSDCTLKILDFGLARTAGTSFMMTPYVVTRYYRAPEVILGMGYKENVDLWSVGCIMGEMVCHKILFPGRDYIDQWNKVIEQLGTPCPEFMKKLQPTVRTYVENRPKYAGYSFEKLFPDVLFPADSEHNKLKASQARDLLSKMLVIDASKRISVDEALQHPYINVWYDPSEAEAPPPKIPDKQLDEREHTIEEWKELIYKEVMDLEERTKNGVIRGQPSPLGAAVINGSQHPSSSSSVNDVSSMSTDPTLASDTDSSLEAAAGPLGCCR
CaMK1 (human), sequence (Q14012 whole entry, looked up): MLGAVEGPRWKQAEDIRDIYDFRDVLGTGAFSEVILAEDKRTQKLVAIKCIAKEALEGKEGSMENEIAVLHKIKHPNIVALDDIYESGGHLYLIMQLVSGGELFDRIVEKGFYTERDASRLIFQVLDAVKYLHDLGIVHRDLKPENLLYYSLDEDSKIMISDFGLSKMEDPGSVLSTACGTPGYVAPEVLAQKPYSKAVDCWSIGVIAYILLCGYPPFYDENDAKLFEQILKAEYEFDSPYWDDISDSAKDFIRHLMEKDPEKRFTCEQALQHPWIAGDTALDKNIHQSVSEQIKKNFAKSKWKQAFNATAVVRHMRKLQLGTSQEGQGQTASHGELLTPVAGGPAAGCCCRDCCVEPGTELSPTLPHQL
DYRK2 (human), sequence (Q92630 whole entry, looked up): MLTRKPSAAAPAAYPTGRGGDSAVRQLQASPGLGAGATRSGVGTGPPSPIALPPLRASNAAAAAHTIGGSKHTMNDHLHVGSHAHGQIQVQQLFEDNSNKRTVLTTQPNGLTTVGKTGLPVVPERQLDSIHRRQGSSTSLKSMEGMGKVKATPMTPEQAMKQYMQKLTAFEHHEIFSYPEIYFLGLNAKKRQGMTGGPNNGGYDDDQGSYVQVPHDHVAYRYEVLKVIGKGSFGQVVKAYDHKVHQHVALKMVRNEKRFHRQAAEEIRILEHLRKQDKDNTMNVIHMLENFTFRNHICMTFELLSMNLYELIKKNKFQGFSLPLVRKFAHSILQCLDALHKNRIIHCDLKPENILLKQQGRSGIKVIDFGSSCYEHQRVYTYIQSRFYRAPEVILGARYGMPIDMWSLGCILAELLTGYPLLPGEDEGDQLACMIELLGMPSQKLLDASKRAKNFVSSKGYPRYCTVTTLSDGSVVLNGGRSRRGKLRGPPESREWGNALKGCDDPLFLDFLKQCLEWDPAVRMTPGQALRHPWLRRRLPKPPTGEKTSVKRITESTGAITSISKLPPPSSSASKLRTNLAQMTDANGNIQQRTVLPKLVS
BRSK2 (human), sequence (Q8IWQ3 whole entry, looked up): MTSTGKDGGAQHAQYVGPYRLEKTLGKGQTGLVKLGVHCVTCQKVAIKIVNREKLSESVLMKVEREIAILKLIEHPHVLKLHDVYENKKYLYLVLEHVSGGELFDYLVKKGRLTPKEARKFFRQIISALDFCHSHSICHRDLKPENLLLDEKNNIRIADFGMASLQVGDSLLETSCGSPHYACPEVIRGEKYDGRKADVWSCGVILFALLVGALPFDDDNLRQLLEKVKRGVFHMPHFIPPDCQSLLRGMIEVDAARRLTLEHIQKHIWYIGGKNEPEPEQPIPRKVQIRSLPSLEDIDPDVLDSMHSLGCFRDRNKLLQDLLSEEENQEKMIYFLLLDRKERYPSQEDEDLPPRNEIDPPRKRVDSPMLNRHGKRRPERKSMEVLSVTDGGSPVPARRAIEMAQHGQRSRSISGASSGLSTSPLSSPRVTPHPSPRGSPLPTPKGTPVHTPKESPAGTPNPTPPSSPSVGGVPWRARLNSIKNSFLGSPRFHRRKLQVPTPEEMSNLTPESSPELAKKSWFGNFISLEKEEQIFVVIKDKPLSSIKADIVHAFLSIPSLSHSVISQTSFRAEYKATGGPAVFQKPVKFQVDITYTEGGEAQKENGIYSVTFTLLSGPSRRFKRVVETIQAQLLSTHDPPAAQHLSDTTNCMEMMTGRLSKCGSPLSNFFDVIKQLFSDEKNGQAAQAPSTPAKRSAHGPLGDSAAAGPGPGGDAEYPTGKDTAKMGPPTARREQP
MAPK9 (human), sequence (P45984 whole entry, looked up): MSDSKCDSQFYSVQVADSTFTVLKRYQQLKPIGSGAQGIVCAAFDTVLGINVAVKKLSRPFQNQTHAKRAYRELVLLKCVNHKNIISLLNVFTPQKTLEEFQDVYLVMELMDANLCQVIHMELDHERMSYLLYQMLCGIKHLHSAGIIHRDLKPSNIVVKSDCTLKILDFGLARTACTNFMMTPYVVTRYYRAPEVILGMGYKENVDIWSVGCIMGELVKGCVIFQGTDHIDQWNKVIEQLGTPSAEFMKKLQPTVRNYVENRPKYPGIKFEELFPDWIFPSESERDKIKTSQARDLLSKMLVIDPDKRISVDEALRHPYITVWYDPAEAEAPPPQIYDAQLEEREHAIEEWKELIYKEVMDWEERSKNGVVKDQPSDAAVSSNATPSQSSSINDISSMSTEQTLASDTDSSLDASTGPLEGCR

NC(=O)c1cc2c(-c3cccc(-c4ccccc4)c3)cnc(N)c2s1
residual activity (MAPK11 (human); compound 0.1 µM): 96%
residual activity (MAPK11 (human); compound 1.0 µM): 111%
residual activity (MAPK11 (human); compound 10.0 µM): 80%
residual activity (STK3 (human); compound 0.1 µM): 108%
residual activity (STK3 (human); compound 1.0 µM): 59%
residual activity (STK3 (human); compound 10.0 µM): 21%
residual activity (EPHB2 (human); compound 0.1 µM): 90%
residual activity (EPHB2 (human); compound 1.0 µM): 74%
residual activity (EPHB2 (human); compound 10.0 µM): 24%
residual activity (AURKA (human); compound 0.1 µM): 95%
residual activity (AURKA (human); compound 1.0 µM): 99%
residual activity (AURKA (human); compound 10.0 µM): 89%
residual activity (BTK (human); compound 1.0 µM): 94%
residual activity (BTK (human); compound 10.0 µM): 30%
residual activity (MAP3K11 (human); compound 0.1 µM): 74%
residual activity (MAP3K11 (human); compound 1.0 µM): 19%
residual activity (MAP3K11 (human); compound 10.0 µM): 4%
residual activity (MARK3 (human); compound 0.1 µM): 104%
residual activity (MARK3 (human); compound 1.0 µM): 69%
residual activity (MARK3 (human); compound 10.0 µM): 26%
residual activity (YES1 (human); compound 1.0 µM): 66%
residual activity (YES1 (human); compound 10.0 µM): 13%
residual activity (EPHB4 (human); compound 0.1 µM): 107%
residual activity (EPHB4 (human); compound 1.0 µM): 76%
residual activity (EPHB4 (human); compound 10.0 µM): 19%
residual activity (MAPK8 (human); compound 0.1 µM): 111%
residual activity (MAPK8 (human); compound 1.0 µM): 69%
residual activity (MAPK8 (human); compound 10.0 µM): 15%
residual activity (JAK2 JH1 JH2 (human); compound 0.1 µM): 101%
residual activity (JAK2 JH1 JH2 (human); compound 1.0 µM): 90%
residual activity (JAK2 JH1 JH2 (human); compound 10.0 µM): 43%
residual activity (SYK (human); compound 0.1 µM): 96%
residual activity (SYK (human); compound 1.0 µM): 88%
residual activity (SYK (human); compound 10.0 µM): 56%
residual activity (PRKCA (human); compound 0.1 µM): 94%
residual activity (PRKCA (human); compound 1.0 µM): 64%
residual activity (PRKCA (human); compound 10.0 µM): 18%
residual activity (INSR (human); compound 0.1 µM): 103%
residual activity (INSR (human); compound 1.0 µM): 81%
residual activity (INSR (human); compound 10.0 µM): 18%
residual activity (BRSK2 (human); compound 0.1 µM): 109%
residual activity (BRSK2 (human); compound 1.0 µM): 108%
residual activity (BRSK2 (human); compound 10.0 µM): 130%
residual activity (MAPK9 (human); compound 0.1 µM): 107%
residual activity (MAPK9 (human); compound 1.0 µM): 82%
residual activity (MAPK9 (human); compound 10.0 µM): 33%
residual activity ([1]; compound 0.1 µM): 112%
residual activity ([1]; compound 1.0 µM): 90%
residual activity ([1]; compound 10.0 µM): 39%
residual activity (MAP3K1 (human); compound 0.1 µM): 108%
residual activity (MAP3K1 (human); compound 1.0 µM): 73%
residual activity (MAP3K1 (human); compound 10.0 µM): 30%
residual activity (MAP2K1 (human); compound 0.1 µM): 90%
residual activity (MAP2K1 (human); compound 1.0 µM): 86%
residual activity (MAP2K1 (human); compound 10.0 µM): 17%
residual activity (MAPK10 (human); compound 0.1 µM): 97%
residual activity (MAPK10 (human); compound 10.0 µM): 46%
residual activity (TBK1 (human); compound 0.1 µM): 98%
residual activity (TBK1 (human); compound 1.0 µM): 91%
residual activity (TBK1 (human); compound 10.0 µM): 47%
residual activity (BRSK1 (human); compound 0.1 µM): 102%
residual activity (BRSK1 (human); compound 1.0 µM): 81%
residual activity (BRSK1 (human); compound 10.0 µM): 89%
residual activity (PIM1 (human); compound 0.1 µM): 112%
residual activity (PIM1 (human); compound 1.0 µM): 89%
residual activity (PIM1 (human); compound 10.0 µM): 41%
residual activity (CaMK1 (human); compound 0.1 µM): 107%
residual activity (CaMK1 (human); compound 1.0 µM): 90%
residual activity (CaMK1 (human); compound 10.0 µM): 38%
residual activity ([2]; compound 0.1 µM): 105%
residual activity ([2]; compound 1.0 µM): 104%
residual activity ([2]; compound 10.0 µM): 108%
residual activity (DYRK2 (human); compound 0.1 µM): 101%
residual activity (DYRK2 (human); compound 1.0 µM): 77%
residual activity (DYRK2 (human); compound 10.0 µM): 88%
residual activity (FLT1 (human); compound 0.1 µM): 100%
residual activity (FLT1 (human); compound 1.0 µM): 55%
residual activity (FLT1 (human); compound 10.0 µM): 22%
residual activity (GCK (human); compound 0.1 µM): 7%
residual activity (GCK (human); compound 1.0 µM): 6%
residual activity (GCK (human); compound 10.0 µM): 5%
residual activity (EPHA2 (human); compound 0.1 µM): 87%
residual activity (EPHA2 (human); compound 1.0 µM): 78%
residual activity (EPHA2 (human); compound 10.0 µM): 86%
residual activity (MAPKAPK5 (human); compound 0.1 µM): 87%
residual activity (MAPKAPK5 (human); compound 1.0 µM): 42%
residual activity (MAPKAPK5 (human); compound 10.0 µM): 15%
residual activity (HIPK2 (human); compound 0.1 µM): 64%
residual activity (HIPK2 (human); compound 1.0 µM): 22%
residual activity (HIPK2 (human); compound 10.0 µM): 9%
residual activity (HIPK1 (human); compound 0.1 µM): 86%
residual activity (HIPK1 (human); compound 1.0 µM): 37%
residual activity (HIPK1 (human); compound 10.0 µM): 13%
residual activity (DYRK3 (human); compound 0.1 µM): 97%
residual activity (DYRK3 (human); compound 1.0 µM): 76%
residual activity (DYRK3 (human); compound 10.0 µM): 59%

O=C(O)c1cc(N=Nc2ccc(S(=O)(=O)Nc3ccccn3)cc2)ccc1O
residual activity (MAPK11 (human); compound 1.0 µM): 113%
residual activity (MAPK11 (human); compound 10.0 µM): 109%
residual activity (STK3 (human); compound 1.0 µM): 94%
residual activity (STK3 (human); compound 10.0 µM): 92%
residual activity (AURKA (human); compound 10.0 µM): 100%
residual activity (BTK (human); compound 1.0 µM): 97%
residual activity (BTK (human); compound 10.0 µM): 74%
residual activity (MAP3K11 (human); compound 10.0 µM): 71%
residual activity (MARK3 (human); compound 1.0 µM): 117%
residual activity (MARK3 (human); compound 10.0 µM): 109%
residual activity (YES1 (human); compound 1.0 µM): 113%
residual activity (YES1 (human); compound 10.0 µM): 103%
residual activity (MAPK8 (human); compound 1.0 µM): 96%
residual activity (MAPK8 (human); compound 10.0 µM): 96%
residual activity (SYK (human); compound 1.0 µM): 101%
residual activity (SYK (human); compound 10.0 µM): 107%
residual activity (PRKCA (human); compound 1.0 µM): 90%
residual activity (PRKCA (human); compound 10.0 µM): 85%
residual activity (INSR (human); compound 1.0 µM): 101%
residual activity (INSR (human); compound 10.0 µM): 97%
residual activity (BRSK2 (human); compound 1.0 µM): 106%
residual activity (BRSK2 (human); compound 10.0 µM): 87%
residual activity (MAPK9 (human); compound 1.0 µM): 128%
residual activity (MAPK9 (human); compound 10.0 µM): 117%
residual activity ([1]; compound 1.0 µM): 80%
residual activity ([1]; compound 10.0 µM): 90%
residual activity (MAP2K1 (human); compound 1.0 µM): 86%
residual activity (MAP2K1 (human); compound 10.0 µM): 91%
residual activity (MAPK10 (human); compound 1.0 µM): 105%
residual activity (MAPK10 (human); compound 10.0 µM): 107%
residual activity (TBK1 (human); compound 1.0 µM): 111%
residual activity (TBK1 (human); compound 10.0 µM): 99%
residual activity (BRSK1 (human); compound 1.0 µM): 97%
residual activity (BRSK1 (human); compound 10.0 µM): 92%
residual activity (PIM1 (human); compound 1.0 µM): 88%
residual activity (PIM1 (human); compound 10.0 µM): 44%
residual activity (CaMK1 (human); compound 1.0 µM): 97%
residual activity (CaMK1 (human); compound 10.0 µM): 91%
residual activity ([2]; compound 1.0 µM): 112%
residual activity ([2]; compound 10.0 µM): 106%
residual activity (DYRK2 (human); compound 1.0 µM): 99%
residual activity (DYRK2 (human); compound 10.0 µM): 79%
residual activity (FLT1 (human); compound 1.0 µM): 102%
residual activity (FLT1 (human); compound 10.0 µM): 105%
residual activity (GCK (human); compound 1.0 µM): 101%
residual activity (GCK (human); compound 10.0 µM): 96%
residual activity (EPHA2 (human); compound 1.0 µM): 119%
residual activity (MAPKAPK5 (human); compound 1.0 µM): 92%
residual activity (MAPKAPK5 (human); compound 10.0 µM): 90%
residual activity (HIPK2 (human); compound 10.0 µM): 94%
residual activity (HIPK1 (human); compound 1.0 µM): 111%
residual activity (HIPK1 (human); compound 10.0 µM): 105%
residual activity (DYRK3 (human); compound 1.0 µM): 89%
residual activity (DYRK3 (human); compound 10.0 µM): 77%
